{"source": "PubChem BioAssay AID1963825", "about": "(Molecular Pharmacology Branch, DTP, NCI, 2024)", "assay": "Anticancer human tumor 997537-175-T-J1-PDC patient-derived colon adenocarcinoma cell line growth inhibition [POLQ]", "conditions": "997537-175-T-J1-PDC complex spheroid viability, combination with POLQ inhibitors; for pIC50: curve of first compound; for viability, T/C: stronger effect = lower value", "outline": "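PDC + HUVEC + MSC complex spheroids; POLQ inhibitors ± partner drugs; top conc. at/near clinical Cmax, else 10 microM (SN-38 1 microM), half-log dilutions; 37 degrees C, 5% CO2.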", "note": "pIC50: −log10 of the molar value."}
{"compound": "O=C(Nc1ccc(O)c(NS(=O)(=O)c2ccc(F)cc2)c1)c1ccc(-c2ccccc2)cc1", "note": "+ Nc1ccc(C#CCN(C(=O)Cc2ncc(C(F)(F)F)cc2C(F)(F)F)c2ccc(F)cc2)nn1;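 further: luminescence signal used as a surrogate for viable cells; spheroids exposed to drugs for seven days before readout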", "values": [{"measurement": "pIC50", "setting": "second compound 0.0316 µM", "value": "< 5.00"}, {"measurement": "pIC50", "setting": "second compound 0.1 µM", "value": "< 5.00"}, {"measurement": "pIC50", "setting": "second compound 0.316 µM", "value": "< 5.00"}, {"measurement": "pIC50", "setting": "second compound 1 µM", "value": "< 5.00"}, {"measurement": "pIC50", "setting": "second compound 3.16 µM", "value": "< 5.00"}, {"measurement": "pIC50", "setting": "second compound 10 µM", "value": "< 5.00"}, {"measurement": "viability, T/C", "setting": "second compound 0.0316 µM, first compound 0.0316 µM", "value": 106, "unit": "%"}, {"measurement": "viability, T/C", "setting": "second compound 0.0316 µM, first compound 0.1 µM", "value": 108, "unit": "%"}, {"measurement": "viability, T/C", "setting": "second compound 0.0316 µM, first compound 0.316 µM", "value": 106, "unit": "%"}, {"measurement": "viability, T/C", "setting": "second compound 0.0316 µM, first compound 1 µM", "value": 99.1, "unit": "%"}, {"measurement": "viability, T/C", "setting": "second compound 0.0316 µM, first compound 3.16 µM", "value": 91.3, "unit": "%"}, {"measurement": "viability, T/C", "setting": "second compound 0.0316 µM, first compound 10 µM", "value": 97.7, "unit": "%"}, {"measurement": "viability, T/C", "setting": "second compound 0.1 µM, first compound 0.0316 µM", "value": 109, "unit": "%"}, {"measurement": "viability, T/C", "setting": "second compound 0.1 µM, first compound 0.1 µM", "value": 91.9, "unit": "%"}, {"measurement": "viability, T/C", "setting": "second compound 0.1 µM, first compound 0.316 µM", "value": 96.8, "unit": "%"}, {"measurement": "viability, T/C", "setting": "second compound 0.1 µM, first compound 1 µM", "value": 105, "unit": "%"}, {"measurement": "viability, T/C", "setting": "second compound 0.1 µM, first compound 3.16 µM", "value": 119, "unit": "%"}, {"measurement": "viability, T/C", "setting": "second compound 0.1 µM, first compound 10 µM", "value": 87.5, "unit": "%"}, {"measurement": "viability, T/C", "setting": "second compound 0.316 µM, first compound 0.0316 µM", "value": 104, "unit": "%"}, {"measurement": "viability, T/C", "setting": "second compound 0.316 µM, first compound 0.1 µM", "value": 114, "unit": "%"}, {"measurement": "viability, T/C", "setting": "second compound 0.316 µM, first compound 0.316 µM", "value": 106, "unit": "%"}, {"measurement": "viability, T/C", "setting": "second compound 0.316 µM, first compound 1 µM", "value": 101, "unit": "%"}, {"measurement": "viability, T/C", "setting": "second compound 0.316 µM, first compound 3.16 µM", "value": 107, "unit": "%"}, {"measurement": "viability, T/C", "setting": "second compound 0.316 µM, first compound 10 µM", "value": 84.6, "unit": "%"}, {"measurement": "viability, T/C", "setting": "second compound 1 µM, first compound 0.0316 µM", "value": 105, "unit": "%"}, {"measurement": "viability, T/C", "setting": "second compound 1 µM, first compound 0.1 µM", "value": 105, "unit": "%"}, {"measurement": "viability, T/C", "setting": "second compound 1 µM, first compound 0.316 µM", "value": 95.2, "unit": "%"}, {"measurement": "viability, T/C", "setting": "second compound 1 µM, first compound 1 µM", "value": 101, "unit": "%"}, {"measurement": "viability, T/C", "setting": "second compound 1 µM, first compound 3.16 µM", "value": 102, "unit": "%"}, {"measurement": "viability, T/C", "setting": "second compound 1 µM, first compound 10 µM", "value": 89.8, "unit": "%"}, {"measurement": "viability, T/C", "setting": "second compound 3.16 µM, first compound 0.0316 µM", "value": 98, "unit": "%"}, {"measurement": "viability, T/C", "setting": "second compound 3.16 µM, first compound 0.1 µM", "value": 97.9, "unit": "%"}, {"measurement": "viability, T/C", "setting": "second compound 3.16 µM, first compound 0.316 µM", "value": 114, "unit": "%"}, {"measurement": "viability, T/C", "setting": "second compound 3.16 µM, first compound 1 µM", "value": 110, "unit": "%"}, {"measurement": "viability, T/C", "setting": "second compound 3.16 µM, first compound 3.16 µM", "value": 102, "unit": "%"}, {"measurement": "viability, T/C", "setting": "second compound 3.16 µM, first compound 10 µM", "value": 90.9, "unit": "%"}, {"measurement": "viability, T/C", "setting": "second compound 10 µM, first compound 0.0316 µM", "value": 105, "unit": "%"}, {"measurement": "viability, T/C", "setting": "second compound 10 µM, first compound 0.1 µM", "value": 101, "unit": "%"}, {"measurement": "viability, T/C", "setting": "second compound 10 µM, first compound 0.316 µM", "value": 113, "unit": "%"}, {"measurement": "viability, T/C", "setting": "second compound 10 µM, first compound 1 µM", "value": 103, "unit": "%"}, {"measurement": "viability, T/C", "setting": "second compound 10 µM, first compound 3.16 µM", "value": 97.4, "unit": "%"}, {"measurement": "viability, T/C", "setting": "second compound 10 µM, first compound 10 µM", "value": 81, "unit": "%"}]}
